From ChEMBL document CHEMBL1201862, “PubChem BioAssay data set” (2004)
Activity calls are given as the source filed them.

Legend:
BJ [1] = test: cells; assay type: functional, cell-based; settings: Homo sapiens
[2] = inhibitors of firefly luciferase expression or activity, dose response, H4 neuroglioma cells, luminescence (AID 1990); assay type: functional, cell-based
Prothrombin = Prothrombin (Homo sapiens, UniProt P00734); test: Thrombin 1536 HTS Dose Response Confirmation. [Related pubchem assays: 1046 (Thrombin 1536 HTS; hits were confirmed in this assay)]; assay type: functional
[3] = inhibitors of SNCA 5'UTR-driven reporter translation, confirmation, H4 neuroglioma cells, luminescence (AID 1988); assay type: functional, cell-based
[4] = inhibitors of SNCA 5'UTR-driven translation, confirmation, luminescence, H4 neuroglioblastoma cells, dose confirmation (AID 2454); assay type: functional, cell-based;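 also: H4 neuroglioblastoma cells carrying an alpha-synuclein 5'UTR luciferase reporter; potency for inhibition of the luciferase signal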
[5] = cytotoxicity toward DRD oncogenic fibroblasts, dose response, cell-based, non-viral oncogenic, luminescence (AID 1934); assay type: functional; settings: Homo sapiens
cells = assay type: functional, cell-based
BJ [6] = test: cytotoxicity toward BJ-TERT-LT-ST fibroblasts, dose response, cell-based, RAS-independent, luminescence (AID 1935); assay type: functional; settings: Homo sapiens;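 also: BJ fibroblasts immortalized with TERT plus LT and ST oncogenes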
[7] = luciferase reporter signal reduction – luminescence, H4-C neuroglioblastoma cells, dose response (AID 2458); assay type: functional, cell-based;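 also: H4 neuroglioblastoma cells stably carrying a luciferase reporter gene fusion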
J774.A1 = test: Confirmation of image-based Screening Assay for Inhibitors of Phagocytosis. [Related pubchem assays (depositor defined):AID1029, AID1643]; assay type: functional, cell-based; settings: Mus musculus
BJ [8] = test: cytotoxicity toward BJ-TERT fibroblasts, dose response, cell-based, RAS-independent, luminescence (AID 1933); assay type: functional; settings: Homo sapiens
[9] = Luminescence Cell-Based Dose Response HTS to Identify Inhibitors of 5'UTR Stem-Loop Driven Prion Protein mRNA Translation in H4 Neuroglioblastoma Cells. [Related pubchem assays: 1827 (Project Summary), 1813 (Primary HTS)]; assay type: functional
Protein Tat = biological target: T1, Protein Tat (Human immunodeficiency virus type 1 group M subtype B (isolate HXB2)(HIV-1), UniProt P04608); assay type: functional;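 also: tat binding to TAR RNA read out by fluorescence polarization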
T1 sequence (P04608 whole entry): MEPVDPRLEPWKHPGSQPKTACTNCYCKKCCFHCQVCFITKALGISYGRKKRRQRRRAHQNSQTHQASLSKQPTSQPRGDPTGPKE

[10] = biological target: T2, Polyadenylate-binding protein 1 (Homo sapiens, UniProt P11940); test: PABP1 MLLE–PAM2 interaction inhibitors, dose response, miRNA deadenylation inhibitor project, biochemical, fluorescence polarization, Cy5-PAM2 peptide, secondary (AID 602260); assay type: functional; settings: read-out: IC50_Mean
T2 sequence (P11940 whole entry): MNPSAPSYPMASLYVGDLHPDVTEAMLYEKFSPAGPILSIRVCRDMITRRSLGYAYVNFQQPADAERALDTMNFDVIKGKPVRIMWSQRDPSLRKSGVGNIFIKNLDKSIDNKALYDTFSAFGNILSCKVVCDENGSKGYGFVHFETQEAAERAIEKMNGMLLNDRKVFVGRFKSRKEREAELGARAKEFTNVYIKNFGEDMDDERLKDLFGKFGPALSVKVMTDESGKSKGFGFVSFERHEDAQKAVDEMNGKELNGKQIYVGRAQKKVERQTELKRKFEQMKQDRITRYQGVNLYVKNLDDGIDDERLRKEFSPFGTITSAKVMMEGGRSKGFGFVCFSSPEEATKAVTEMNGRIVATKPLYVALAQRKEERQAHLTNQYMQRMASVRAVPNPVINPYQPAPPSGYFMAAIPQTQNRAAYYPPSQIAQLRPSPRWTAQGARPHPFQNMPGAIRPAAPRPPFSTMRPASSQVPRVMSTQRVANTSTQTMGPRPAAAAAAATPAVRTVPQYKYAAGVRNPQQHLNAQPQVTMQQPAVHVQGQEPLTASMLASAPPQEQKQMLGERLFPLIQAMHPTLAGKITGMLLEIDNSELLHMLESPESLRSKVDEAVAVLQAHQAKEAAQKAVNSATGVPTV

[11] = biological target: Female germline-specific tumor suppressor gld-1 (Caenorhabditis elegans, UniProt Q17339); test: inhibitors of GLD-1 binding to TGE RNA, dose response, biochemical, fluorescence polarization, C. elegans (AID 2802);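 also: fluorescence polarization of labeled TGE RNA bound by purified gld-1 protein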
Sequence of Female germline-specific tumor suppressor gld-1 (Q17339 whole entry): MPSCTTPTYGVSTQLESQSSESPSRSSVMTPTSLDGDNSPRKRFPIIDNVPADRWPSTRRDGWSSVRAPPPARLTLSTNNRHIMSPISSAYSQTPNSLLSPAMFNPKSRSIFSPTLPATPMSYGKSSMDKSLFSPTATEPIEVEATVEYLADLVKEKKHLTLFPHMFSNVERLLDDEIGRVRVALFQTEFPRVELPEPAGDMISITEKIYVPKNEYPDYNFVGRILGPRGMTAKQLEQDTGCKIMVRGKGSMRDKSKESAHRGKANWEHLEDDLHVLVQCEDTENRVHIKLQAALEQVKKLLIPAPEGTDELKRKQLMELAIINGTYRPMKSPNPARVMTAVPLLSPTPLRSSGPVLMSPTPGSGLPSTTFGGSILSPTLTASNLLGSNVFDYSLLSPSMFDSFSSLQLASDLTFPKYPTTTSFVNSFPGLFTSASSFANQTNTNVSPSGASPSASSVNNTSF

[12] = THP-1 cell cytotoxicity, dose response, cytotoxicity control for Vif-APOBEC3G degradation inhibitor project, THP-1 cells (AID 1117359); assay type: functional; settings: Human immunodeficiency virus 1, THP-1
Protein Rev = Protein Rev (Human immunodeficiency virus type 1 group M subtype B (isolate HXB2)(HIV-1), UniProt P04618); test: inhibitors of Rev binding to RRE RNA, dose response, biochemical, fluorescence polarization, HIV-1 (AID 434976); design: species or system Human immunodeficiency virus 1
Sequence of Protein Rev (P04618 whole entry): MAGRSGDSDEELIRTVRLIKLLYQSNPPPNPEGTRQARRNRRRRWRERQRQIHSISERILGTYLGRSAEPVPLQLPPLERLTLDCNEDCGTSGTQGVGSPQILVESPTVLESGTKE

[13] = biological target: T2, Polyadenylate-binding protein 1; test: PABP1 MLLE–PAM2 binding inhibitor potency, dose response, biochemical, fluorescence polarization, FITC-PAM2 peptide (AID 602259); assay type: functional; settings: read-out: IC50_Mean
[14] = biological target: T3, Dual specificity protein phosphatase 3 (Homo sapiens, UniProt P51452); test: SAR VHR1 Fluorescent Assay for In Vitro dose response studies. [Related pubchem assays (depositor defined):AID1654, AID1661, AID1878, AID1992, AID2004, AID2070, AID2085]; assay type: functional
T3 sequence (P51452 whole entry): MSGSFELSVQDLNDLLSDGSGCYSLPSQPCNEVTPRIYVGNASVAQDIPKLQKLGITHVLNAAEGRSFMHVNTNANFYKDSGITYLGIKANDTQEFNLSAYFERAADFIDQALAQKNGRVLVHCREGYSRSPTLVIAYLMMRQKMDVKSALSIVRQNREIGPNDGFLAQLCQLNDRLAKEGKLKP

[15] = biological target: Tyrosine-protein phosphatase non-receptor type 12 (Homo sapiens, UniProt Q05209); test: SAR Selectivity Analysis of small molecule inhibitors of PEST using pCAP in a fluorescence assay. [Related pubchem assays (depositor defined):AID1779, AID1784, AID2135]; assay type: functional
[16] = biological target: T4, Voltage-gated N-type calcium channel alpha-1B subunit/Amyloid beta A4 precursor protein-binding family A member 1 (Homo sapiens, UniProt Q00975+Q02410); assay type: protein assay
T4 sequence (Q00975 whole entry): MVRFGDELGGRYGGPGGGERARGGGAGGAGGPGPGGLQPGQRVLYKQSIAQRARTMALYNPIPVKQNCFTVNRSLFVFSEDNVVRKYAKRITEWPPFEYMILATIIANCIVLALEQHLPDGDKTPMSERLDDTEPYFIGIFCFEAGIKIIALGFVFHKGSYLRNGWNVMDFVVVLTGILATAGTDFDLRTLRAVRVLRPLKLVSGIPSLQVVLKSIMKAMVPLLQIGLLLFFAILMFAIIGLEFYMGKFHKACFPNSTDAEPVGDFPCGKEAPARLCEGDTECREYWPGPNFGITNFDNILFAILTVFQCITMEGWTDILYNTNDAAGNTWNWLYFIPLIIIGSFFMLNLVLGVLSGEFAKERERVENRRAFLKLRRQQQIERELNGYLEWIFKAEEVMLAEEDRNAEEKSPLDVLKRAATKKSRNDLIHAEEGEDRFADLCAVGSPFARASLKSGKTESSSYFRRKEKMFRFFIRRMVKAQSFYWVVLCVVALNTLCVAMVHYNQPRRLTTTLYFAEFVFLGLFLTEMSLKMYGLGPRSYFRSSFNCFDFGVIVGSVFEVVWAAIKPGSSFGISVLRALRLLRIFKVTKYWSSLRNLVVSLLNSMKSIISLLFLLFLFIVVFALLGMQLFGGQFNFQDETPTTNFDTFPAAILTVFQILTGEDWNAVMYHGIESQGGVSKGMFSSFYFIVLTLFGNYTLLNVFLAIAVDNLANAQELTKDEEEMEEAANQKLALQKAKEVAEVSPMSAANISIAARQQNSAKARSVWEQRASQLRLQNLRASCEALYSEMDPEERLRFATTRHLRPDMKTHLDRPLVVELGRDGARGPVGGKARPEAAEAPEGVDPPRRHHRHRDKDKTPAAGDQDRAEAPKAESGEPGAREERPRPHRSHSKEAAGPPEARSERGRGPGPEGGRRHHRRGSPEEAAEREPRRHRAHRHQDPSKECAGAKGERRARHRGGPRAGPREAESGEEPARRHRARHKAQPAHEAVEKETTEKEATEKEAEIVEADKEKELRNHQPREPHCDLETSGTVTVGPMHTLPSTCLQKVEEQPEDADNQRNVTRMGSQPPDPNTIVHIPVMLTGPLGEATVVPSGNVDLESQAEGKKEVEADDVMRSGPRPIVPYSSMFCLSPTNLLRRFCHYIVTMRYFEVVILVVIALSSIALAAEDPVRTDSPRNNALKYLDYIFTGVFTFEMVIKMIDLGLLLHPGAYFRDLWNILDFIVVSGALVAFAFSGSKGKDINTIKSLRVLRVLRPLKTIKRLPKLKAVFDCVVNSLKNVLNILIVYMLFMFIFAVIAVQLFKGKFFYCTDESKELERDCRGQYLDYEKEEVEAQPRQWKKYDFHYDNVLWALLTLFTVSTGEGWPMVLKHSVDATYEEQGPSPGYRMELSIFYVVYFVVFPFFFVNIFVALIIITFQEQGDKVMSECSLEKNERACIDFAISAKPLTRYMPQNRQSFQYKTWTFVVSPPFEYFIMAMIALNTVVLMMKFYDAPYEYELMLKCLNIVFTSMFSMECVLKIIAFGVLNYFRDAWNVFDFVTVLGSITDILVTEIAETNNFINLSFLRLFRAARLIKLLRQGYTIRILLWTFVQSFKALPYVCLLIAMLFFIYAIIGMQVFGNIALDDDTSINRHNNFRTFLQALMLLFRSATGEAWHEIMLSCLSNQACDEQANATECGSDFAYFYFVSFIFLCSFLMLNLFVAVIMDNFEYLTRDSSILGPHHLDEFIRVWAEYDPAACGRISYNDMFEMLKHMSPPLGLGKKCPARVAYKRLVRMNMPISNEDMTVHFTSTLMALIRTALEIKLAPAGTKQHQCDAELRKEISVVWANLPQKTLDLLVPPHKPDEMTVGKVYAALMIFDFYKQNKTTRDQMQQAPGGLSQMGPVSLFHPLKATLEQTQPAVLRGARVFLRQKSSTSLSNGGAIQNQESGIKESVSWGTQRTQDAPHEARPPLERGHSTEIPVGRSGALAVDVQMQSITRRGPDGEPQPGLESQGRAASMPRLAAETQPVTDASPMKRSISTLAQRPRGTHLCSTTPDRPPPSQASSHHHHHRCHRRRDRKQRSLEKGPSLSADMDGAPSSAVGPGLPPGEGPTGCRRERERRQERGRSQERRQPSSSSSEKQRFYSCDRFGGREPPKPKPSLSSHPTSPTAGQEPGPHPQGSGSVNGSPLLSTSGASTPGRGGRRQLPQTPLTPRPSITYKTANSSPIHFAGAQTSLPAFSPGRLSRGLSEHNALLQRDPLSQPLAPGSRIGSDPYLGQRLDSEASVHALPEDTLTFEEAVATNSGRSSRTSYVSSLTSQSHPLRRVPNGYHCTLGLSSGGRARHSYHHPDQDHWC
T4 sequence (Q02410 whole entry): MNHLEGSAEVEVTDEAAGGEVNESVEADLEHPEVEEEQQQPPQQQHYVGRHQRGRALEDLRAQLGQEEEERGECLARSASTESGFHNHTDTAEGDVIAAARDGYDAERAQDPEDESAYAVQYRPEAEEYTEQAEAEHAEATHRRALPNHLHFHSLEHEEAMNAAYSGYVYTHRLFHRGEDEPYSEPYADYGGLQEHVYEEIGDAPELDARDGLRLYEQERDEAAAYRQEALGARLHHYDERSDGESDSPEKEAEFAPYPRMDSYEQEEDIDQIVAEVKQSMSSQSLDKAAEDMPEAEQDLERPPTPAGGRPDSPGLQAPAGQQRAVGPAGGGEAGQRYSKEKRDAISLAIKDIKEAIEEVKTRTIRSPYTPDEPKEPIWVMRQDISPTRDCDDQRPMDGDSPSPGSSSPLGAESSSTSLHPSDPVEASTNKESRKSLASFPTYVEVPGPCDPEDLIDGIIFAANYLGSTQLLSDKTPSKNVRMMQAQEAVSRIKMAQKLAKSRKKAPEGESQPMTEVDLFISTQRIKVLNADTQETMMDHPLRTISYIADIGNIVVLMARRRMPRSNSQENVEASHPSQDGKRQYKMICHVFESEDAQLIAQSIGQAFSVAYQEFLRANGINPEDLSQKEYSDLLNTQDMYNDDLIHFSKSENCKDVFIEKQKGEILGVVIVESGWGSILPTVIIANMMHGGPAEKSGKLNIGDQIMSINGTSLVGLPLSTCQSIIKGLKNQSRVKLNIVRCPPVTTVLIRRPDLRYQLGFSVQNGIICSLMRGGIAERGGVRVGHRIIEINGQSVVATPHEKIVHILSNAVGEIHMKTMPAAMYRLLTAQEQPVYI

[17] = biological target: T3, Dual specificity protein phosphatase 3; test: VHR1 phosphatase inhibitors, biochemical (AID 1878)
[18] = biological target: T3, Dual specificity protein phosphatase 3; test: SAR VHR1 absorbance Assay for In Vitro dose response studies. [Related pubchem assays (depositor defined):AID1654, AID1661, AID1878, AID1992, AID2004]
[19] = biological target: T5, Tyrosine-protein phosphatase non-receptor type 22 (Homo sapiens, UniProt Q9Y2R2); test: LYP (PTPN22) phosphatase inhibitor potency, SAR follow-up, biochemical, pCAP fluorogenic substrate, fluorescence, set 3 (AID 449727); assay type: functional
T5 sequence (Q9Y2R2 whole entry): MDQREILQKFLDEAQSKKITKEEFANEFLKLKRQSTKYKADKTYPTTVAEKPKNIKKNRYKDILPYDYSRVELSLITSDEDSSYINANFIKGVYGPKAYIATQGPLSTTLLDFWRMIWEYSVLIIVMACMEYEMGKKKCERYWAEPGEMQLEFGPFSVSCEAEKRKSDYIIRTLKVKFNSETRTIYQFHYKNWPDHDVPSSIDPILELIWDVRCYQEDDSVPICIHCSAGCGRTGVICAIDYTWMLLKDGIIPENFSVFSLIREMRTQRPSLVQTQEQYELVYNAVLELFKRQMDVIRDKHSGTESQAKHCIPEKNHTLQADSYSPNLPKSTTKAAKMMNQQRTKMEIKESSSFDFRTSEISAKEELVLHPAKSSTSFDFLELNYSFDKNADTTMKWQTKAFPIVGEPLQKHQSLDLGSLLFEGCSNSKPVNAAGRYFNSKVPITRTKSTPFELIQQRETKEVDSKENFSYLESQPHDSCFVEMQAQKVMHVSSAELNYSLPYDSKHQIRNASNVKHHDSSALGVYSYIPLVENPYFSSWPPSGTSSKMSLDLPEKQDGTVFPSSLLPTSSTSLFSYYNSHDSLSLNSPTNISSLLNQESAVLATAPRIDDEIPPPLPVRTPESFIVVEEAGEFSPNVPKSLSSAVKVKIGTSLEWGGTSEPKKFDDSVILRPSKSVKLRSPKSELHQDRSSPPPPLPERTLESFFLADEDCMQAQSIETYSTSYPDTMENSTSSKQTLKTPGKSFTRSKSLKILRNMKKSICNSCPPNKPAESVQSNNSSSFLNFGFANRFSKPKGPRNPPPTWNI

[20] = biological target: T3, Dual specificity protein phosphatase 3; test: VHR1 phosphatase inhibitors, primary screen, biochemical, absorbance, uHTS (AID 1654)
[21] = biological target: T6, Tyrosine-protein phosphatase non-receptor type 7 (Homo sapiens, UniProt P35236); test: redox-dependent HePTP inhibition, mechanism study, biochemical, fluorescence (AID 2068); assay type: functional
T6 sequence (P35236 whole entry): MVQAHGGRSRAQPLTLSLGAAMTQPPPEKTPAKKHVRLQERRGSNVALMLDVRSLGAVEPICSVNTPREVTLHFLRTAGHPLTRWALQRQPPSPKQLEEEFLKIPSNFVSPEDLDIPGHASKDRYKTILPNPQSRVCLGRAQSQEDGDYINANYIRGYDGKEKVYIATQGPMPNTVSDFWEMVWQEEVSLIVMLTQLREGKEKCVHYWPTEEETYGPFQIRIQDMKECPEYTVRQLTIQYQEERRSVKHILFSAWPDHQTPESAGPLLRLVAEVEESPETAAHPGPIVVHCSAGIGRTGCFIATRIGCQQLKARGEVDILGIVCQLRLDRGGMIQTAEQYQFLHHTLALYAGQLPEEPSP

[22] = biological target: T7, Long-chain-fatty-acid--AMP ligase FadD28 (Mycobacterium tuberculosis, UniProt P9WQ59); test: Fluorescence polarization aasay to screen for inhibitors that compete for the binding of FadD28 to a bisubstrate Measured in Biochemical System Using Plate Reader - 2147-01_Inhibitor_Dose_CherryPick_Activity.; assay type: functional, Mycobacterium tuberculosis H37Rv
T7 sequence (P9WQ59 whole entry): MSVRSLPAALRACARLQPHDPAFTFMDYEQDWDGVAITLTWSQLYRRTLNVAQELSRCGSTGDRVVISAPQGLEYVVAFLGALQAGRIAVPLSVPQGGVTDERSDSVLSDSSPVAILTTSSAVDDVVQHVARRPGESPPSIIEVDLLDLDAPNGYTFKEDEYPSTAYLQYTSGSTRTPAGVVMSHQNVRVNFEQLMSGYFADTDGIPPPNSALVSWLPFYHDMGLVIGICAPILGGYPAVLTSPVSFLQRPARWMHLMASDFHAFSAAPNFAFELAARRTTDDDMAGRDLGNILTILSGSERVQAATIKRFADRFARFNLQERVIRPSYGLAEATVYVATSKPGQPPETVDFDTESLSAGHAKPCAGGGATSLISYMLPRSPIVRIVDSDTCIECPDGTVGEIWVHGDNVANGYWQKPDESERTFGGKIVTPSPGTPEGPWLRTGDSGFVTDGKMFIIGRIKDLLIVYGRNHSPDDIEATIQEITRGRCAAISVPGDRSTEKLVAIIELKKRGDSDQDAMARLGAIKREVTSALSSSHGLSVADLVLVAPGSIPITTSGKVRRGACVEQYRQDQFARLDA

[23] = biological target: T8, Dual specificity protein phosphatase 6 (Rattus norvegicus, UniProt Q64346); test: MKP-3 phosphatase inhibitors, primary screen, biochemical, rat enzyme, in vitro (AID 425)
T8 sequence (Q64346 whole entry): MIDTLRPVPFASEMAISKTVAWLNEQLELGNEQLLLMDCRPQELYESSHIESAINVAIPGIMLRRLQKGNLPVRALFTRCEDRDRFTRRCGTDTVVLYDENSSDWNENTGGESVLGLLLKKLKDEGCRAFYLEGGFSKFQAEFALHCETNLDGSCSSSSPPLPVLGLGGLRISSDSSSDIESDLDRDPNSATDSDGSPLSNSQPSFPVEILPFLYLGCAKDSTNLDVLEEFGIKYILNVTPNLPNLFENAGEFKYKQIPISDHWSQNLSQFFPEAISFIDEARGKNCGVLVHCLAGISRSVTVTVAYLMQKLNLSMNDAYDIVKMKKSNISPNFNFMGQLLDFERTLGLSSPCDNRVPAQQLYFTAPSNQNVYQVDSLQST

[24] = biological target: Serine/threonine-protein phosphatase PP1-alpha catalytic subunit (Homo sapiens, UniProt P62136); test: PP1 phosphatase inhibitors, dose response, biochemical, fluorescence (AID 2403);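 also: phosphatase turnover of OMFP into fluorescent 3-O-methylfluorescein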
[25] = biological target: T4, Voltage-gated N-type calcium channel alpha-1B subunit/Amyloid beta A4 precursor protein-binding family A member 1; assay type: protein assay; remark: listed apart in the source
[26] = biological target: T5, Tyrosine-protein phosphatase non-receptor type 22; test: SAR LYP1 Fluorescent Assay using OMFP substrate for In Vitro dose response studies - Set 3. [Related pubchem assays (depositor defined):AID1779, AID1784, AID2140, AID2686]; assay type: functional
[27] = biological target: Serine/threonine-protein phosphatase (Homo sapiens, UniProt Q9BPW0); test: Counterscreen for inhibitors of PP1: fluorescence-based biochemical high throughput dose response assay to identify inhibitors of Protein Phosphatase 5 (PP5). [Related pubchem assays: 2034 (Summary (PP5 inhibitors)), 1987 (PP5 inhibitors in singlate), 2235 (PP1 inhibitors in singlate)]
Sequence of Serine/threonine-protein phosphatase (Q9BPW0 whole entry): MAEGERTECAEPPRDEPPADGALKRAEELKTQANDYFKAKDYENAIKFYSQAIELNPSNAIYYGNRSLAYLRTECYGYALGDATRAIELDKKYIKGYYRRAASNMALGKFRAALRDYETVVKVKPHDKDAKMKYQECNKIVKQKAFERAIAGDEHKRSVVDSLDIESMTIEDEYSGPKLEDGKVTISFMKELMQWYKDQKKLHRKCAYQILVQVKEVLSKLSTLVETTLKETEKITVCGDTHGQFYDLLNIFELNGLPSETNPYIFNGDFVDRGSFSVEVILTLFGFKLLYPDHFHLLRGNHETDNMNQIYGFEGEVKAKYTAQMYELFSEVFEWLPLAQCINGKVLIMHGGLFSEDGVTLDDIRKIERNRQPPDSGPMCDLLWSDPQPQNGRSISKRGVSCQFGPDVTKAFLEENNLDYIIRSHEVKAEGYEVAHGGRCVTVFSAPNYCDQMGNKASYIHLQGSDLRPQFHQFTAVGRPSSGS

[28] = biological target: T8, Dual specificity protein phosphatase 6; assay type: functional

Compound: O=C(c1ccco1)N1CCN(C(=O)N2c3ccccc3Sc3ccccc32)CC1
- EC50 (BJ [1]): 13.2 µM (inconclusive)
- EC50 [2]: < 100 nM (active)
- IC50 (Prothrombin): > 50 µM (not active)
- EC50 [3]: < 100 nM (active)
- EC50 [4]: 381 nM (active)
- EC50 [5]: 6.59 µM (inconclusive)
- EC50 (cells): 291 nM (active)
- EC50 (BJ [6]): 1.41 µM (inconclusive)
- EC50 [7]: 295 nM (active)
- IC50 (J774.A1): < 50 nM (inactive)
- EC50 (BJ [8]): 8.08 µM (inconclusive)
- EC50 [9]: 136 nM (active)

Compound: Clc1ccc(/C=N/c2c(-c3ccco3)nc3ccccn23)cc1
- IC50 (Protein Tat): 6.48 µM (inconclusive)
- IC50 [10]: > 66 µM (inactive)
- IC50 [11]: 2.59 µM (active)
- CC50 [12]: > 40 µM (active)
- IC50 (Protein Rev): > 75.4 µM (not active)
- IC50 [13]: 59.2 µM (inactive)

Compound: COc1cc(/C=C2\SC(=O)N(CC(=O)Nc3ccc(C)cc3)C2=O)cc(Cl)c1OCC(=O)O
- IC50 [14]: 1.18 µM (active)
- IC50 [15]: 313 nM (active)
- IC50 [16]: > 50 µM (inactive)
- IC50 [17]: < 1.23 µM (inactive)
- IC50 [18]: 2.4 µM (active)
- IC50 [19]: 803 nM (active)
- IC50 [20]: 5.01 µM (active)
- IC50 [21]: 256 nM (active)
- AC50 [22]: > 100 µM (inactive)
- IC50 [23]: 75.2 µM (active)
- IC50 [24]: 6.24 µM (active)
- IC50 [25]: 6.91 µM (active)
- IC50 [26]: 1.51 µM (active)
- IC50 [27]: > 67 µM (not active)
- IC50 [28]: 6.66 µM (active)
